Test results: US6566064B1, “Method for anticipating sensitivity to medicine for osteoporosis” (Nipro Corporation, priority 1999, dated 2003)
Like-named read-outs stand apart in the source and are kept apart here.

Experiments:
[1] = tested on: Japanese females after menopause; experiment: Change in bone mineral density after 6 month administration of a medicine, by VDR/ER/ApoE4 genotype (Reference Example 1); assay type: in vivo, human; conditions: for Average therapeutic effect (%) - Anticipated therapeutic effect (%) / Anticipated therapeutic effect value (index of change in bone mineral density) after 6 month administration of a medicine, Average: 6 months; for Anticipated therapeutic effect value (index of change in bone mineral density) after 6 month administration of a medicine, Average: total average on randomly sampled patients, vitamin D 1 μg/day, estrogen 0.312 mg/day, vitamin K2 45 mg/day
From the text: In the present invention, the pluralities of remedies for osteoporosis are preferably vitamin D, estrogen, and vitamin K2. Here, the sensitivity to a remedy for osteoporosis means the degree of therapeutic effect of the remedy on osteoporosis. That is, in the case where a medicine A is higher in therapeutic effect than a medicine B in a patient, “the sensitivity of the patient to the medicine A is higher than the sensitivity to the medicine B”. In the present invention, using a change in bone mineral density before and after administration of a medicine as an index of sensitivity, it is defined that the greater the value of “index of change in bone mineral density”−“index of change in anticipated bone mineral density”, the higher is the sensitivity to the medicine.
Blood was collected from 177 Japanese females after menopause randomly selected and blood cells were fractionated and genome DNA was extracted and purified by conventional methods. A VDR gene fragment, an ER gene fragment, and an ApoE gene fragment were separately amplified using the genome DNA as a template and the following primer pairs.
The PCR conditions were denaturation: 94° C., 60 seconds; annealing: 62° C., 60 seconds; elongation: 72° C., 60 seconds (30 cycles) for the VDR gene, denaturation: 94° C., 30 seconds; annealing: 65° C., 30 seconds; elongation: 72° C., 30 seconds (30 cycles) for the ER gene, and denaturation: 94° C., 30 seconds; annealing: 61° C., 40 seconds; elongation: 72° C., 90 seconds (30 cycles) for the ApoE gene. This PCP amplification gave a VDR gene fragment of 7.2 kbp, an ER gene fragment of 1.3 kbp, and an ApoE gene fragment of 244 bp containing polymorphism sites, respectively. After treating a VDR gene amplification reaction mixture with Bsm I, an ER gene amplification reaction mixture with Xba I, and an ApoE gene amplification reaction mixture with Hha I, the reaction mixtures were subjected to agarose gel electrophoresis. In the case where each amplification product was cleaved with the restriction enzyme at the polymorphism site, bands of 4.6 kbp and 2.6 kbp were detected for the VDR amplification product, bands of 900 bp and 400 bp were detected for the ER amplification product, and bands of 72,48, 38, 35, 19, 17, and 15 bp were detected for the ApoE amplification product.
The band of 72 bp was not detected in the case where there is no typE4 (that is, 4(−)). After the electrophoresis, the gels were dyed with ethidium bromide and polymorphisms of the VDR, ER, and ApoE genes were discriminated based on the band patterns and classified into 8 polymorphism groups (Table 3).
(§1) The 177 Japanese females after the polymorphism analysis as described above were each measured for bone mineral density. Then, one of vitamin D, estrogen, and vitamin K2 was administered to the patients for 6 months. The administration amount was 1μg/day for vitamin D, 0.312 mg/day for estrogen, and 45 mg/day for vitamin K2. After 6 months, the bone mineral density was measured again and an index of change in bone mineral density between before and after the administration of a medicine was obtained. A value obtained by subtracting an anticipated value of therapeutic effect of each medicine (total average therapeutic effect on randomly sampled patients; Table 3) from an average index of change in bone mineral density for each genotype was defined as sensitivity to a medicine for each genotype.

[2] = tested on: Japanese females after menopause; experiment: Change in bone mineral density after administration of a medicine, by VDR/ER/ApoE3 genotype (Reference Example 2); assay type: in vivo, human
Procedure: as §1
Blood was collected from 167 Japanese females after menopause randomly selected and blood cells were fractionated and genome DNA was extracted and purified by conventional methods. A VDR gene fragment, an ER gene fragment and an ApoE gene fragment were separately amplified using the genome DNA as a template and the same primer pairs as in Reference Example 1 under the same amplification conditions.
After treating the gene amplification reaction mixtures with a restriction enzyme respectively, the reaction mixtures were subjected to agarose gel electrophoresis. In the case where each amplification product was cleaved with the restriction enzyme at the polymorphism site, bands of 4.6 kbp and 2.6 kbp were detected for the VDR amplification product, bands of 900 bp and 400 bp were detected for the ER amplification product, and bands of 72, 48, 38, 35, 19, 17, and 15 bp were detected for the ApoE amplification product.
To detect ApoE3 type alleles, the amplification products were treated with Hha I, and were subjected to agarose electrophoresis gel. After the electrophoresis, the gels were dyed with ethidium bromide and polymorphisms of the ApoE genes were discriminated based on the band patterns and ApoE3 types identified as a combination of bands as below described.
The 8 polymorphism groups were classified (Table 4).

[3] = cited from earlier work
[4] = VDR genotype A (not cleaved with Apa I) compared with genotype a; cited from earlier work
[5] = DBP genotype group of the GC2-2 type compared with the other groups; cited from earlier work

Row | Molecule | Average therapeutic effect (%) - Anticipated therapeutic effect (%) ([1]; genotype B(+)x(+)4(−)) | Average therapeutic effect (%) - Anticipated therapeutic effect (%) ([1]; genotype B(+)x(−)4(+)) | Average therapeutic effect (%) - Anticipated therapeutic effect (%) ([1]; genotype B(+)x(−)4(−)) | Average therapeutic effect (%) - Anticipated therapeutic effect (%) ([1]; genotype B(−)X(+)4(−)) | Average therapeutic effect (%) - Anticipated therapeutic effect (%) ([1]; genotype B(−)X(−)4(+)) | Average therapeutic effect (%) - Anticipated therapeutic effect (%) ([1]; genotype B(−)X(−)4(−)) | Anticipated therapeutic effect value (index of change in bone mineral density) after 6 month administration of a medicine, Average [1] [%] | Average therapeutic effect (%) - Anticipated therapeutic effect (%) ([2]; genotype B(+)X(+)3(+)) | Average therapeutic effect (%) - Anticipated therapeutic effect (%) ([2]; genotype B(+)X(−)3(+)) | Average therapeutic effect (%) - Anticipated therapeutic effect (%) ([2]; genotype B(−)X(+)3(+)) | Average therapeutic effect (%) - Anticipated therapeutic effect (%) ([2]; genotype B(−)X(−)3(+)) | Average therapeutic effect (%) - Anticipated therapeutic effect (%) ([2]; genotype B(−)X(−)3(−)) | Average therapeutic effect (%) - Anticipated therapeutic effect (%) ([1]; genotype B(−)X(+)4(+)) | Average therapeutic effect (%) - Anticipated therapeutic effect (%) ([2]; genotype B(+)X(−)3(−)) | Average therapeutic effect (%) - Anticipated therapeutic effect (%) ([2]; genotype B(−)X(+)3(−)) | further results
1 | CC(C)=CCC/C(C)=C/CC/C(C)=C/CC/C(C)=C/CC1=C(C)C(=O)c2ccccc2C1=O [Vitamin K2, vitamin K2] | 1.46 | −0.59 | 1.08 | 0.60 | −2.68 | 0.68 | 0.59 | 3.248 | 1.852 | −0.2083 | −0.8443 | −2.855 |  |  |  | sensitivity to the medicine relative to the other two medicines ([1]; genotypes [B(−) X(−) 4(−)] and [B(+) X(−) 4(−)]): higher than the sensitivity to vitamin D and the sensitivity to estrogen; sensitivity to vitamin K2 ([3]; ApoE4(+) group compared with ApoE4(−) group): significantly lower
2 | estrogen | 1.74 | −1.07 | −0.93 | 2.78 | −2.52 | −0.94 | 3.26 | 0.4144 | −0.8961 | 3.741 | −0.07099 | −1.151 | 7.87 | 0.03227 | 4.514 | sensitivity to the medicine relative to the other two medicines ([1]; genotypes [B(−) X(+) 4(−)], [B(−) X(+) 4(+)], [B(+) X(+) 4(−)] and [B(+) X(+) 4(+)]): higher than the sensitivity to vitamin D and the sensitivity to vitamin K2; sensitivity to estrogen ([3]; ER genotype PpXx compared with other genotype groups): significantly higher
3 | vitamin D | −1.75 | −0.27 | −0.66 | 0.37 | 0.56 | 0.05 | 1.15 | −0.6927 | 0.02042 | 1.643 | 0.4017 | 1.498 | 0.34 | 2.234 | −3.114 | Average therapeutic effect (%) - Anticipated therapeutic effect (%) ([1]; genotype B(+)x(+)4(+)): 0.46%; sensitivity to the medicine relative to the other two medicines ([1]; genotype [B(−) X(−) 4(+)]): higher than the sensitivity to vitamin K2 and the sensitivity to estrogen; Average therapeutic effect (%) - Anticipated therapeutic effect (%) ([2]; genotype B(+)X(+)3(−)): 0.461%; sensitivity to vitamin D ([3]; VDR genotype AAB compared with aabb): significantly lower; sensitivity to vitamin D [4]: more sensitive; sensitivity to vitamin D [5]: higher in sensitivity
